Literature values in article PMC9609070 (ACS Omega, 2022).
Where two headings read alike, the source gives them in different places.

Columns and labels:
[1] = neat water, x1=0.000, cited from earlier work
[2] = cited from earlier work
[3] = neat water, x1=0.000, cited from earlier work; remark: listed apart in the source
[4] = calculated by Fedors' groups contribution method; cited from earlier work

SMILES: Cc1cnc(NC(=O)C2=C(O)c3ccccc3S(=O)(=O)N2C)s1 [Meloxicam, 4-hydroxy-2-methyl-N-(5-methyl-2-thiazolyl)-2H-1,2-benzothiazine-3-carboxamide-1,1-dioxide]
- Activity coefficient (γ3) ([1]; T=293.15 K): 2396
- Activity coefficient (γ3) ([1]; T=298.15 K): 2708
- Activity coefficient (γ3) ([1]; T=303.15 K): 3055
- Activity coefficient (γ3) ([1]; T=308.15 K): 3376
- Activity coefficient (γ3) ([1]; T=313.15 K): 3755
- Ideal mole fraction solubility (x3^id) ([2]; T=293.15 K): 2.607 × 10^–3 mole fraction
- Ideal mole fraction solubility (x3^id) ([2]; T=298.15 K): 3.079 × 10^–3 mole fraction
- Ideal mole fraction solubility (x3^id) ([2]; T=303.15 K): 3.627 × 10^–3 mole fraction
- Ideal mole fraction solubility (x3^id) ([2]; T=308.15 K): 4.260 × 10^–3 mole fraction
- Ideal mole fraction solubility (x3^id) ([2]; T=313.15 K): 4.991 × 10^–3 mole fraction
- TΔsolnS° ([2]; ideal, Thm=303.0 K): 10.61 kJ·mol^–1
- ΔsolnG° (apparent Gibbs energy of dissolution) ([2]; ideal, Thm=303.0 K): 14.16 kJ·mol^–1
- ΔsolnH° (apparent enthalpy of dissolution) ([2]; ideal, Thm=303.0 K): 24.78 kJ·mol^–1
- ΔsolnS° (apparent entropy of dissolution) ([2]; ideal, Thm=303.0 K): 35.03 J·mol^–1·K^–1
- Experimental molar solubility (C) ([3]; T=293.15 K): 6.027 × 10^–5 mol·dm^–3
- Experimental mole fraction solubility (x3) ([3]; T=293.15 K): 1.088 × 10^–6 mole fraction
- Experimental molar solubility (C) ([3]; T=298.15 K): 6.290 × 10^–5 mol·dm^–3
- Experimental mole fraction solubility (x3) ([3]; T=298.15 K): 1.137 × 10^–6 mole fraction
- Experimental molar solubility (C) ([3]; T=303.15 K): 6.557 × 10^–5 mol·dm^–3
- Experimental mole fraction solubility (x3) ([3]; T=303.15 K): 1.187 × 10^–6 mole fraction
- Experimental molar solubility (C) ([3]; T=308.15 K): 6.962 × 10^–5 mol·dm^–3
- Experimental mole fraction solubility (x3) ([3]; T=308.15 K): 1.262 × 10^–6 mole fraction
- Experimental mole fraction solubility (x3) ([3]; T=313.15 K): 1.329 × 10^–6 mole fraction
- Hildebrand solubility parameter δ3 [4]: 32.1 MPa^1/2
